Source: patent US20250082624A1, “METHODS OF TREATING COGNITIVE IMPAIRMENT” (NeuroTherapia, Inc., priority 2023, published 2025)
Values joined by “and” are separate entries in the source; they are usually repeats but may differ in a detail not shown here. Equal values may be shown once. “Also recorded” adds a separate entry of the source.

Experiment: Phase 1b MAD plasma pharmacokinetics, non-compartmental analysis
Type: in vivo, human
Text: Methods: All study procedures were approved by the IRB, and informed consent was obtained. Three cohorts of volunteers 45-80 years of age with well-controlled comorbidities (NOAD) and one cohort of AD patients diagnosed with cognitive impairment consistent with prodromal AD per International Working Group criteria or mild AD per National Institute on Aging—Alzheimer's Association criteria (n=6 active, 2 placebo per cohort) were enrolled. Participants were admitted to the study site for the duration of the dosing and returned 7-12 days after the last dose for a safety visit. Participants received NTRX-07 (10, 30, or 90 mg) or a placebo in a double-blinded randomization orally once daily for seven days. Subjects were assessed for changes in vital signs, including maneuvers to induce lightheadedness, electrocardiograms, 24-hour electroencephalograms (EEG), and safety laboratory studies. The second cohort returned and received a single repeat dose after a standard high-fat meal. The AD cohort also underwent cognitive testing and had blood samples for biomarkers drawn. Subjects had PK sampling done after the first and final dose of the study drug. An independent safety review committee conducted a blinded safety review of adverse events and plasma levels between each cohort.
All subjects had PK sampling done after the first and final dose of the study drug.
(§1) Raw bioanalytical data were received from Nuvisan following analysis of plasma samples from each of four cohorts. PK parameters were calculated by noncompartmental analysis using standard equations. Specifically, area under the plasma concentration versus time curve (AUC) was calculated using the trapezoid rule. Maximal plasma concentration (Cmax) and time of maximal plasma concentration (Tmax) were taken directly from the data. Clearance divided by bioavailability (Cl/F) was calculated as the dose divided by the AUC. Apparent volume of distribution over bioavailability (Vd/F) was calculated as dose divided by Cmax.
With oral administration of the dose every 24 hours for 7 days, blood samples were taken over a 24-hour interval on Days 1 and 7 and before and after dosing on Day 3.
as §1, with “on Oct. 27, 2022. […]” for “following analysis of plasma samples from each of four cohorts. PK parameters were calculated by noncompartmental analysis using standard equations.”
as §1, with “on Nov. 24, 2022. […]” for “following analysis of plasma samples from each of four cohorts. PK parameters were calculated by noncompartmental analysis using standard equations.”
as §1, with “on Dec. 19, 2022. […]” for “following analysis of plasma samples from each of four cohorts. PK parameters were calculated by noncompartmental analysis using standard equations.”
Raw bioanalytical data were received from Nuvisan on Jun. 30, 2023. […] Specifically, area under the plasma concentration versus time curve (AUC) was calculated using the trapezoid rule. Maximal plasma concentration (Cmax) and time of maximal plasma concentration (Tmax) were taken directly from the data. […]

[1] = Table 9: Cohort A, 10 mg QD oral, Day 1, individual subjects
[2] = Table 10: Cohort A, 10 mg QD oral, Day 7, individual subjects
[3] = Table 11: Cohort B, 30 mg QD oral, Day 1, individual subjects
[4] = Table 12: Cohort B, 30 mg QD oral, Day 7, individual subjects
[5] = Table 13: Cohort B Fed, 30 mg oral, fed state, individual subjects
[6] = Table 14: Cohort C, 90 mg QD oral, Day 1, individual subjects
[7] = Table 15: Cohort C, 90 mg QD oral, Day 7, individual subjects
[8] = Table 16: Cohort D (AD), 90 mg QD oral, Day 1, individual subjects
[9] = Table 17: Cohort D (AD), 90 mg QD oral, Day 7, individual subjects

SMILES: CC1(Cc2ccccc2)COc2cc(C(=O)N3CCCCC3)ccc21 (centres unmarked) [NTRX-07, 3-benzyl-3-methyl-2,3-dihydrobenzofuran-6-carboxylic acid-piperidine amide]
- Food effect on Cmax (30 mg after standard high-fat meal vs fasted): decreased Cmax; also recorded: muting of Cmax
- Plasma levels vs target / predicted efficacious levels (90 mg dose, allometric scaling of preclinical data): within the target ranges; also recorded: Blood levels equivalent to those that were efficacious in animal models of AD; also recorded: consistent with levels predicted to be efficacious
- Dose linearity of PK (10-90 mg QD): PK is linear across this dose range
- Dose linearity of PK (interim analyses) (40, 120 and 360 mg SDD QD doses): Good dose linearity; also recorded: linear; also recorded: Dose linearity was observed
- Accumulation over seven days of dosing (Cohort A, 40 mg SDD QD): little or no accumulation
- Accumulation over seven days of dosing (Cohort B, 120 mg SDD QD): little or no accumulation
- Accumulation over seven days of dosing (Cohort C, 360 mg SDD QD): little or no accumulation
- Average of Cl/F (Cohort D AD patients, 90 mg QD oral, Day 1, mean ± SD): 62 ± 19 L/h
- AUClast [1]: 31.6 ng·h/mL and 66.2 ng·h/mL and 131.4 ng·h/mL and 33.4 ng·h/mL and 126.9 ng·h/mL and 83.1 ng·h/mL
- Cl/F [1]: 316.3 L/h and 151.1 L/h and 76.1 L/h and 299.0 L/h and 78.8 L/h and 120.4 L/h
- Cmax [1]: 24.2 ng/mL and 45.0 ng/mL and 36.7 ng/mL and 18.2 ng/mL and 52.6 ng/mL and 37.0 ng/mL
- Tmax [1]: 1.0 h
- Cl/F (Table 9: Cohort A, 10 mg QD oral, Day 1, mean ± S.D.): 174 ± 108 L/h
- AUC24 h [2]: 47.8 ng·h/mL and 88.4 ng·h/mL and 223.8 ng·h/mL and 39.5 ng·h/mL and 80.4 ng·h/mL and 62.9 ng·h/mL
- Cl/F [2]: 209.3 L/h and 113.2 L/h and 44.7 L/h and 253.4 L/h and 124.4 L/h and 158.9 L/h
- Cmax [2]: 29.6 ng/mL and 39.4 ng/mL and 63.6 ng/mL and 19.6 ng/mL and 46.7 ng/mL and 27.1 ng/mL
- Tmax [2]: 1.0 h
- Cl/F (Table 10: Cohort A, 10 mg QD oral, Day 7, mean ± S.D.): 151 ± 74 L/h
- AUClast [3]: 141.9 ng·h/mL and 462.4 ng·h/mL and 716.1 ng·h/mL and 369.3 ng·h/mL and 222.6 ng·h/mL and 92.5 ng·h/mL and 293.8 ng·h/mL
- Cl/F [3]: 211.4 L/h and 64.9 L/h and 41.9 L/h and 81.2 L/h and 134.7 L/h and 324.4 L/h and 102.1 L/h
- Cmax [3]: 60.8 ng/mL and 93.9 ng/mL and 209 ng/mL and 127 ng/mL and 153 ng/mL and 47.9 ng/mL and 70.6 ng/mL
- Tmax [3]: 1.0 h (3×) and 2.0 h
- Cl/F (Table 11: Cohort B, 30 mg QD oral, Day 1, mean ± S.D.): 137 ± 99 L/h
- AUClast [4]: 113 ng·h/mL and 581 ng·h/mL and 286 ng·h/mL and 212 ng·h/mL and 61 ng·h/mL and 166 ng·h/mL
- Cl/F [4]: 265.0 L/h and 51.7 L/h and 105.0 L/h and 141.2 L/h and 492.7 L/h and 181.3 L/h
- Cmax [4]: 92.9 ng/mL and 236 ng/mL and 127 ng/mL and 186 ng/mL and 42.4 ng/mL and 37.9 ng/mL
- Tmax [4]: 1 h
- Cl/F (Table 12: Cohort B, 30 mg QD oral, Day 7, mean ± S.D.): 206 ± 176 L/h
- AUClast [5]: 421 ng·h/mL and 944 ng·h/mL and 471 ng·h/mL and 347 ng·h/mL and 110 ng·h/mL and 312 ng·h/mL and 124 ng·h/mL and 364 ng·h/mL
- Cl/F [5]: 71.2 L/h and 31.8 L/h and 63.7 L/h and 86.4 L/h and 272.1 L/h and 96.3 L/h and 242.3 L/h and 82.5 L/h
- Cmax [5]: 42 ng/mL and 95.5 ng/mL and 39.6 ng/mL and 32.3 ng/mL and 66.8 ng/mL and 20.3 ng/mL and 58.4 ng/mL
- Tmax [5]: 1 h (2×) and 3 h (2×) and 1.5 h (3×) and 6 h
- Cl/F (Table 13: Cohort B Fed, 30 mg oral, fed state, mean ± S.D.): 123 ± 94 L/h
- AUC24 h [6]: 1629 ng·h/mL and 857 ng·h/mL and 925 ng·h/mL and 657 ng·h/mL and 1730 ng·h/mL and 1807 ng·h/mL
- Cl/F [6]: 55.2 L/h and 105.1 L/h and 97.3 L/h and 137.0 L/h and 52.0 L/h and 49.8 L/h
- Cmax [6]: 449 ng/mL and 350 ng/mL and 337 ng/mL and 92.4 ng/mL and 713 ng/mL and 456 ng/mL
- Tmax [6]: 1.5 h (3×) and 8 h and 1 h
- Cl/F (Table 14: Cohort C, 90 mg QD oral, Day 1, mean ± S.D.): 83 ± 36 L/h
- AUC24 h [7]: 783 ng·h/mL and 604 ng·h/mL and 318 ng·h/mL and 516 ng·h/mL and 876 ng·h/mL and 1349 ng·h/mL
- Cl/F [7]: 115.0 L/h and 149.1 L/h and 283.5 L/h and 174.4 L/h and 102.7 L/h and 66.7 L/h
- Cmax [7]: 167 ng/mL and 230 ng/mL and 155 ng/mL and 114 ng/mL and 105 ng/mL and 361 ng/mL
- Tmax [7]: 2 h and 1.5 h and 3 h
- Cl/F (Table 15: Cohort C, 90 mg QD oral, Day 7, mean ± S.D.): 149 ± 76 L/h
- AUClast [8]: 1004 ng·h/mL and 1255 ng·h/mL and 2727 ng·h/mL and 1349 ng·h/mL and 1580 ng·h/mL and 1422 ng·h/mL
- Cl/F [8]: 89.6 L/h and 71.7 L/h and 33.0 L/h and 66.7 L/h and 57.0 L/h and 63.3 L/h
- Cmax [8]: 234 ng/mL and 491 ng/mL and 685 ng/mL and 435 ng/mL and 434 ng/mL and 587 ng/mL
- Tmax [8]: 2 h and 1 h (2×) and 1.5 h
- Cl/F (Table 16: Cohort D (AD), 90 mg QD oral, Day 1, mean ± S.D.): 64 ± 19 L/h
- AUC24 h [9]: 1067 ng·h/mL and 994 ng·h/mL and 856 ng·h/mL and 608 ng·h/mL and 689 ng·h/mL
- Cl/F [9]: 144.6 L/h and 84.4 L/h and 90.5 L/h and 105.2 L/h and 148.0 L/h and 130.6 L/h
